Test results: patent US8822446B2, “Pyrrolopyridine inhibitors of kinases” (AbbVie Inc., priority 2010, dated 2014)

Biological target: T1, Cdc7 (BEV coexpressed huCDC7/DBF4) (Homo sapiens, UniProt O00311)
T1 construct: made in house; host or cells: baculovirus expression vector (BEV) co-expression
Test: Cdc7 enzyme inhibition assay ([33P]-ATP, biotinylated peptide substrate, FlashPlate)
Assay type: biochemical
Conditions: Ki generated from IC50 assuming ATP-competitive inhibition; 1 μM ATP, apparent ATP Km 0.7 μM; 1 hr reaction
Description: This example describes the assays that may be used to identify compounds having kinase activity.
Cdc7 (BEV coexpressed huCDC7/DBF4) is prepared internally. Cdc7 assays are conducted as follows with final concentrations as listed. In 384-well v-bottom polypropylene plates, 6 μL compound (2% DMSO), is mixed with 6 μL of Cdc7 (2 ug/mL), and Jerini peptide substrate A-A11 (biotin-C6linker-[…]) (2 μM), followed by immediate initiation with 6 μL […] (1 μM, 20 mCi/μmol) using a reaction buffer comprising 25 mM HEPES, pH 7.5, 1 mM DTT, 10 mM MgCl2, 100 μM, Na3VO4, 0.075 mg/ml Triton X-100. Reactions are quenched after 1 hr by the addition of 90 μL stop buffer (50 mM EDTA, 2M NaCl).
Table 1 depicts enzyme inhibition data (Ki) for exemplary compounds.

T1 sequence (O00311 whole entry): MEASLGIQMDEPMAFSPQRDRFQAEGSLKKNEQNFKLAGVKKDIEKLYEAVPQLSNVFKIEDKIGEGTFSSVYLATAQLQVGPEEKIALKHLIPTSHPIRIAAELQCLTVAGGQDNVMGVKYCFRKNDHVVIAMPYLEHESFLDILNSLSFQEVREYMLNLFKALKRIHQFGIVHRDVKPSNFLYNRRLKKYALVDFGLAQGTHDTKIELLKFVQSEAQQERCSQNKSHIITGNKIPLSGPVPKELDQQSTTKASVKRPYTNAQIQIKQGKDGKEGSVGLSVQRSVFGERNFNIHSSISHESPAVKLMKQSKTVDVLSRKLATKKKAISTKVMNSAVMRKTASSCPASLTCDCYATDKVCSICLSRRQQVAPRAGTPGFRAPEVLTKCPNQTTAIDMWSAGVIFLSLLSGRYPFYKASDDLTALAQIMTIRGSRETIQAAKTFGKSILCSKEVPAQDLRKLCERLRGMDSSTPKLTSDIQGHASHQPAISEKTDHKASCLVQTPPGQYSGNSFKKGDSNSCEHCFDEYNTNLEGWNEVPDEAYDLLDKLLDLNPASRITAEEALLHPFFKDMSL
T1 sequence (Q9UBU7 whole entry partner): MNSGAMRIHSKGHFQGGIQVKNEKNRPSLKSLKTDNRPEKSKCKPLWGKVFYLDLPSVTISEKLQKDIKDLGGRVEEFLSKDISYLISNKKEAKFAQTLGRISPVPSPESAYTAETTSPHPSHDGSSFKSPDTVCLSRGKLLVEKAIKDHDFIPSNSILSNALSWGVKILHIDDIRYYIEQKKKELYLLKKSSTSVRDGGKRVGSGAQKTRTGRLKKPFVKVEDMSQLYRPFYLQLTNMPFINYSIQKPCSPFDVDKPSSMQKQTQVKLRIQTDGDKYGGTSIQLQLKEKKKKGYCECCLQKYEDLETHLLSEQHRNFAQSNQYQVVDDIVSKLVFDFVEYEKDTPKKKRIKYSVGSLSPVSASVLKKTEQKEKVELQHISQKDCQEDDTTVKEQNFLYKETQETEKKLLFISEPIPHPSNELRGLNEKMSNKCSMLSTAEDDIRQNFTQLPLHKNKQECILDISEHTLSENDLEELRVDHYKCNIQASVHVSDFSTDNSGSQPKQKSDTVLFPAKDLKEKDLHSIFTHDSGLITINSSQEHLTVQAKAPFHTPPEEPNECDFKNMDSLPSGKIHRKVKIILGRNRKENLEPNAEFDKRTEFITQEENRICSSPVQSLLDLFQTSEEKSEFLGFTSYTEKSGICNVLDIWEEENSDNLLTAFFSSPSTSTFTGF

Row | Compound | Ki [nM]
1 | O=c1cc(-c2c[nH]c3ncccc23)nc(NC2CCCCC2)[nH]1 [Example 1, 2-(cyclohexylamino)-6-(1H-pyrrolo[2,3-b]pyridin-3-yl)pyrimidin-4(3H)-one] | < 10
2 | COCCN(CCOC)c1nc(-c2c[nH]c3ncccc23)cc(=O)[nH]1 [Example 17, 2-[bis(2-methoxyethyl)amino]-6-(1H-pyrrolo[2,3-b]pyridin-3-yl)pyrimidin-4(3H)-one] | < 10
3 | COCCNc1nc(-c2c[nH]c3ncccc23)cc(=O)[nH]1 [Example 18, 2-[(2-methoxyethyl)amino]-6-(1H-pyrrolo[2,3-b]pyridin-3-yl)pyrimidin-4(3H)-one] | < 10
4 | O=c1cc(-c2c[nH]c3ncccc23)nc(NCCO)[nH]1 [Example 19, 2-[(2-hydroxyethyl)amino]-6-(1H-pyrrolo[2,3-b]pyridin-3-yl)pyrimidin-4(3H)-one] | < 10
5 | O=c1cc(-c2c[nH]c3ncccc23)nc(NCc2ccccc2C(F)(F)F)[nH]1 [Example 20, 6-(1H-pyrrolo[2,3-b]pyridin-3-yl)-2-{[2-(trifluoromethyl)benzyl]amino}pyrimidin-4(3H)-one] | < 10
6 | O=c1cc(-c2c[nH]c3ncccc23)nc(N2CCC(CO)CC2)[nH]1 [Example 21, 2-[4-(hydroxymethyl)piperidin-1-yl]-6-(1H-pyrrolo[2,3-b]pyridin-3-yl)pyrimidin-4(3H)-one] | < 10
7 | O=c1cc(-c2c[nH]c3ncccc23)nc(NCCCN2CCOCC2)[nH]1 [Example 22, 2-{[3-(morpholin-4-yl)propyl]amino}-6-(1H-pyrrolo[2,3-b]pyridin-3-yl)pyrimidin-4(3H)-one] | < 10
8 | O=c1cc(-c2c[nH]c3ncccc23)nc(NCc2cccc(O)c2)[nH]1 [Example 23, 2-[(3-hydroxybenzyl)amino]-6-(1H-pyrrolo[2,3-b]pyridin-3-yl)pyrimidin-4(3H)-one] | < 10
9 | O=c1cc(-c2c[nH]c3ncccc23)nc(N2CCOCC2)[nH]1 [Example 24, 2-(morpholin-4-yl)-6-(1H-pyrrolo[2,3-b]pyridin-3-yl)pyrimidin-4(3H)-one] | < 10
10 | O=C(O)C1CCN(c2nc(-c3c[nH]c4ncccc34)cc(=O)[nH]2)CC1 [Example 25, 1-[6-oxo-4-(1H-pyrrolo[2,3-b]pyridin-3-yl)-1,6-dihydropyrimidin-2-yl]piperidine-4-carboxylic acid] | < 10
11 | O=c1cc(-c2c[nH]c3ncccc23)nc(NC2CCCC2)[nH]1 [Example 26, 2-(cyclopentylamino)-6-(1H-pyrrolo[2,3-b]pyridin-3-yl)pyrimidin-4(3H)-one] | < 10
12 | COC1CCN(c2nc(-c3c[nH]c4ncccc34)cc(=O)[nH]2)CC1 [Example 27, 2-(4-methoxypiperidin-1-yl)-6-(1H-pyrrolo[2,3-b]pyridin-3-yl)pyrimidin-4(3H)-one] | < 10
13 | O=c1cc(-c2c[nH]c3ncccc23)nc(NC2CCCCC2O)[nH]1 (centres unmarked) [Example 28, 2-[(2-hydroxycyclohexyl)amino]-6-(1H-pyrrolo[2,3-b]pyridin-3-yl)pyrimidin-4(3H)-one] | < 10
14 | CN1CCC(Nc2nc(-c3c[nH]c4ncccc34)cc(=O)[nH]2)CC1 [Example 29, 2-[(1-methylpiperidin-4-yl)amino]-6-(1H-pyrrolo[2,3-b]pyridin-3-yl)pyrimidin-4(3H)-one] | < 10
15 | O=c1cc(-c2c[nH]c3ncccc23)nc(NCCCn2ccnc2)[nH]1 [Example 30, 2-{[3-(1H-imidazol-1-yl)propyl]amino}-6-(1H-pyrrolo[2,3-b]pyridin-3-yl)pyrimidin-4(3H)-one] | < 10
16 | NCCOCCOCCNc1nc(-c2c[nH]c3ncccc23)cc(=O)[nH]1 [Example 31, 2-({2-[2-(2-aminoethoxy)ethoxy]ethyl}amino)-6-(1H-pyrrolo[2,3-b]pyridin-3-yl)pyrimidin-4(3H)-one] | < 10
17 | O=c1cc(-c2c[nH]c3ncccc23)nc(-c2ccccc2)[nH]1 [Example 32, 2-phenyl-6-(1H-pyrrolo[2,3-b]pyridin-3-yl)pyrimidin-4(3H)-one] | < 10
18 | Cc1ccccc1-c1nc(-c2c[nH]c3ncccc23)cc(=O)[nH]1 [Example 33, 2-(2-methylphenyl)-6-(1H-pyrrolo[2,3-b]pyridin-3-yl)pyrimidin-4(3H)-one] | < 10
19 | O=c1cc(-c2c[nH]c3ncccc23)cc(-c2ccccc2)[nH]1 [Example 34, 6-phenyl-4-(1H-pyrrolo[2,3-b]pyridin-3-yl)pyridin-2(1H)-one] | < 10
20 | O=c1cc(-c2c[nH]c3ncccc23)cc(-c2cccc(OC(F)(F)F)c2)[nH]1 [Example 35, 4-(1H-pyrrolo[2,3-b]pyridin-3-yl)-6-[3-(trifluoromethoxy)phenyl]pyridin-2(1H)-one] | < 10
21 | O=c1cc(-c2c[nH]c3ncccc23)cc(-c2cccc(C(F)(F)F)c2)[nH]1 [Example 36, 4-(1H-pyrrolo[2,3-b]pyridin-3-yl)-6-[3-(trifluoromethyl)phenyl]pyridin-2(1H)-one] | < 10
22 | Cc1cccc(-c2cc(-c3c[nH]c4ncccc34)cc(=O)[nH]2)c1C [Example 37, 6-(2,3-dimethylphenyl)-4-(1H-pyrrolo[2,3-b]pyridin-3-yl)pyridin-2(1H)-one] | < 10
23 | Cc1ccccc1-c1cc(-c2c[nH]c3ncccc23)cc(=O)[nH]1 [Example 38, 6-(2-methylphenyl)-4-(1H-pyrrolo[2,3-b]pyridin-3-yl)pyridin-2(1H)-one] | < 10
24 | O=c1cc(-c2c[nH]c3ncccc23)cc(-c2ccc3c(c2)OCO3)[nH]1 [Example 39, 6-(1,3-benzodioxol-5-yl)-4-(1H-pyrrolo[2,3-b]pyridin-3-yl)pyridin-2(1H)-one] | < 10
25 | O=c1cc(-c2c[nH]c3ncccc23)cc(-c2ccsc2)[nH]1 [Example 40, 4-(1H-pyrrolo[2,3-b]pyridin-3-yl)-6-(3-thienyl)pyridin-2(1H)-one] | < 10
26 | O=c1cc(-c2c[nH]c3ncccc23)cc(-c2ccc3ccccc3c2)[nH]1 [Example 41, 6-(2-naphthyl)-4-(1H-pyrrolo[2,3-b]pyridin-3-yl)pyridin-2(1H)-one] | < 10

Second part, the compound after the results:

Row | Ki [nM] | Compound
27 | < 10 | O=c1cc(-c2c[nH]c3ncccc23)nc(NCc2ccccc2)[nH]1 [Example 2, 2-(benzylamino)-6-(1H-pyrrolo[2,3-b]pyridin-3-yl)pyrimidin-4(3H)-one]
28 | < 10 | O=c1cc(-c2c[nH]c3ncccc23)nc(Nc2ccccc2)[nH]1 [Example 3, 2-anilino-6-(1H-pyrrolo[2,3-b]pyridin-3-yl)pyrimidin-4(3H)-one]
29 | < 10 | N[C@H]1CC[C@H](Nc2nc(-c3c[nH]c4ncccc34)cc(=O)[nH]2)CC1 [Example 4, 2-[(trans-4-aminocyclohexyl)amino]-6-(1H-pyrrolo[2,3-b]pyridin-3-yl)pyrimidin-4(3H)-one]
30 | < 10 | O=c1cc(-c2c[nH]c3ncccc23)nc(NCc2cc(F)cc(F)c2)[nH]1 [Example 5, 2-[(3,5-difluorobenzyl)amino]-6-(1H-pyrrolo[2,3-b]pyridin-3-yl)pyrimidin-4(3H)-one]
31 | < 10 | O=c1cc(-c2c[nH]c3ncccc23)nc(NC2CCNCC2)[nH]1 [Example 6, 2-(piperidin-4-ylamino)-6-(1H-pyrrolo[2,3-b]pyridin-3-yl)pyrimidin-4(3H)-one]
32 | < 10 | O=c1cc(-c2c[nH]c3ncccc23)nc(N2CCC(O)CC2)[nH]1 [Example 7, 2-(4-hydroxypiperidin-1-yl)-6-(1H-pyrrolo[2,3-b]pyridin-3-yl)pyrimidin-4(3H)-one]
33 | < 10 | C[C@H](Nc1nc(-c2c[nH]c3ncccc23)cc(=O)[nH]1)c1ccccc1 [Example 8, 2-{[(1S)-1-phenylethyl]amino}-6-(1H-pyrrolo[2,3-b]pyridin-3-yl)pyrimidin-4(3H)-one]
34 | < 10 | O=c1cc(-c2c[nH]c3ncccc23)nc(NC2CCOCC2)[nH]1 [Example 9, 6-(1H-pyrrolo[2,3-b]pyridin-3-yl)-2-(tetrahydro-2H-pyran-4-ylamino)pyrimidin-4(3H)-one]
35 | < 10 | O=c1cc(-c2c[nH]c3ncccc23)nc(NCC2CCCO2)[nH]1 (centres unmarked) [Example 10, 6-(1H-pyrrolo[2,3-b]pyridin-3-yl)-2-[(tetrahydrofuran-2-ylmethyl)amino]pyrimidin-4(3H)-one]
36 | < 10 | CN(c1nc(-c2c[nH]c3ncccc23)cc(=O)[nH]1)C1CCCCC1 [Example 11, 2-[cyclohexyl(methyl)amino]-6-(1H-pyrrolo[2,3-b]pyridin-3-yl)pyrimidin-4(3H)-one]
37 | < 10 | C[C@@H](Nc1nc(-c2c[nH]c3ncccc23)cc(=O)[nH]1)c1ccccc1 [Example 12, 2-{[(1R)-1-phenylethyl]amino}-6-(1H-pyrrolo[2,3-b]pyridin-3-yl)pyrimidin-4(3H)-one]
38 | < 10 | NC1CCCCC1Nc1nc(-c2c[nH]c3ncccc23)cc(=O)[nH]1 (centres unmarked) [Example 13, 2-[(2-aminocyclohexyl)amino]-6-(1H-pyrrolo[2,3-b]pyridin-3-yl)pyrimidin-4(3H)-one]
39 | < 10 | O=c1cc(-c2c[nH]c3ncccc23)nc(NC2CCCCCC2)[nH]1 [Example 14, 2-(cycloheptylamino)-6-(1H-pyrrolo[2,3-b]pyridin-3-yl)pyrimidin-4(3H)-one]
40 | < 10 | O=c1cc(-c2c[nH]c3ncccc23)nc(N2CCSCC2)[nH]1 [Example 15, 6-(1H-pyrrolo[2,3-b]pyridin-3-yl)-2-(thiomorpholin-4-yl)pyrimidin-4(3H)-one]
41 | < 10 | CNCCNc1nc(-c2c[nH]c3ncccc23)cc(=O)[nH]1 [Example 16, 2-{[2-(methylamino)ethyl]amino}-6-(1H-pyrrolo[2,3-b]pyridin-3-yl)pyrimidin-4(3H)-one]
